Molecules are shown by their SMILES.

For 24 compounds, IC50 results are on record in patent US5420128A, “Pyrimidine derivatives, method of manufacturing the same, and androgen inhibitor” (Otsuka Pharmaceutical Co., Ltd., priority 1990, dated 1995).

Assay [1] deals with T1, rat prostate androgen receptor (Rattus norvegicus, UniProt P15207).
T1 construct: the supernatant was obtained as cytoplasm fraction; from tissue; host or cells: cytosol (105000×g supernatant) of rat ventral prostate, 24 hours after castration
T1 sequence (P15207 1-902): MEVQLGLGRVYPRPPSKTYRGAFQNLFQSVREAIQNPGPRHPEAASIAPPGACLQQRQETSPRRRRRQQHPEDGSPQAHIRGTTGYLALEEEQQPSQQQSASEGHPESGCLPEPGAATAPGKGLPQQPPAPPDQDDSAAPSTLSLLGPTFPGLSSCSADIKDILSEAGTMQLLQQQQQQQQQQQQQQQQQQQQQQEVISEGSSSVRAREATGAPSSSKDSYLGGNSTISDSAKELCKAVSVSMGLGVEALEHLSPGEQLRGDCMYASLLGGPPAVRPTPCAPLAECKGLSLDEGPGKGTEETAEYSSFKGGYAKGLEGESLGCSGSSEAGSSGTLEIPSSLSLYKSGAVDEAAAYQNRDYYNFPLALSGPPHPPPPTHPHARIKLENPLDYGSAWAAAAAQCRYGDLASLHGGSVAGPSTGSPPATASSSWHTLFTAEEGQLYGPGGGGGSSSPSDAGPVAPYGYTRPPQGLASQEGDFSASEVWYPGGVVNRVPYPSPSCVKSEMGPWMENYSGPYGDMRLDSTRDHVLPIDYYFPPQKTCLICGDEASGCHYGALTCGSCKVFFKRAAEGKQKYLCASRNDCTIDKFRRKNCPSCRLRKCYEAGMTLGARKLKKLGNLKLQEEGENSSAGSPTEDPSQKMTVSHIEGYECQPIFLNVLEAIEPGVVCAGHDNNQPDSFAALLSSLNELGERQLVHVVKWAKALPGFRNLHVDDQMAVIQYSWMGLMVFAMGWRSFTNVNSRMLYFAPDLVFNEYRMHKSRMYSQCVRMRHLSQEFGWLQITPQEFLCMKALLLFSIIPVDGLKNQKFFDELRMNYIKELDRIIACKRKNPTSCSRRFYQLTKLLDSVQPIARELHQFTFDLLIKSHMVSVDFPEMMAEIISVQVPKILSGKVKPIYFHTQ
Nature of the assay: inhibitory activity on binding of ^3 H-5α-DHT on rat prostate androgen receptor. As to conditions: ^3 H-5α-DHT 1 nM, rat ventral prostate cytosol, about 20 hours at 0° C.; read-out: Inhibitory activity on 5α-DHT specific binding [IC50 (M)]. Here is the method:
The compounds obtained in Examples were evaluated in the following pharmacological studies A and B. The pharmacological study A was conducted in conformity with J.B.C. 256 (15) 7998-8005, 1981.
A. Measurement of inhibitory activity on binding of ^3 H-5α-[…] (^3 H-5α,-DHT) on rat prostate androgen receptor
(1) Preparation of cytosol from rat prostate
The rat was sacrificed 24 hours after castration, and the ventral lobe of prostate was removed, and was gently homogenized, on ice water bath, by using a Potter homogenizer in three-fold amount of 0.25M sucrose-TME buffer solution (50 mM tris-HCl (pH 7.4), 0.5 mM mercaptoethanol, and 0.1 mM EDTA-2 Na). The homogenate was filtrated through double gauze, and ultracentrifuged at 105000×g for 60 minutes, and the supernatant was used as androgen receptor.
(2) Measurement of ^3 H-5α-DHT specific binding on prostate cytoplasmic androgen receptor
To the cytosol obtained in (1), ^3 H-5α-DHT (47.8 Ci/mmol) was added, so that a final concentration is adjusted to 1 nM, and 0.25 M sucrose-TME buffer was added to adjust the final volume to 0.5 ml, and the reaction mixture was incubated for about 20 hours at 0° C. An ammonium sulfate solution dissolved in 0.25 M sucrose-TME buffer was mixed to be 35% saturation, and after standing for 90 minutes at 0° C., the mixture was centrifuged at 10000×g for 10 minutes at 4° C., and the precipitate was obtained.
This precipitate was suspended again in 0.8 ml of the above buffer solution, and furthermore in order to remove the free type ^3 H-5α-DHT, 0.2 ml of dextran-carbon powder suspension (4% activated carbon, 0.1% dextran T-70, and 0.1% gelatin dissolved in the above buffer solution) was added and mixed, and the mixture was let stand for 10 minutes at 0° C. At 4° C., in succession, the mixture was centrifuged at 3000×g for 10 minutes, and 0.5 ml of the supernatant was transferred into a vial, and 10 ml of aquasol-2 was added, and radioactivity was measured, and the total binding amount of ^3 H-5α-DHT on the prostate cytoplasma androgen receptor was determined. The nonspecific binding amount was similarly determined by adding a non-radioactive ligand (5α-DHT) to the reaction solution to a final concentration of 1 μM. The difference between the total binding amount and nonspecific binding amount was determined as the specific binding amount on the androgen receptor.
(3) Inhibitory activity of sample compounds on ^3 H-5α-DHT specific binding
The compounds obtained in Examples were incubated with ^3 H-5α-DHT at several concentrations same as in (2), and the specific binding amount of ^3 H-5α-DHT on the androgen receptor was determined. Comparing the obtained value with the value of (2), the IC50 value of the test compounds on ^3 H-5α-DHT specific binding was determined. The following compounds were used as the positive controls.

Assay [2] concerns the target T1, rat prostate androgen receptor. Nature of the assay: inhibitory activity on binding of ^3 H-mibolerone on rat prostate androgen receptor. The conditions noted are these: ^3 H-mibolerone 1 nM, triamcinolone acetonide 5 μM, rat ventral prostate cytosol, 20 hours at 0° C.; read-out: Inhibitory activity on mibolerone specific binding [IC50 (M)].
Protocol: B. Measurement of inhibitory activity on binding of ^3 H-mibolerone on rat prostate androgen receptor
The rat was sacrificed 24 hours after castration, and the ventral lobe of prostate was removed, and was gently homogenized, in ice-cooling water bath, at first by using Polytron and then using Potter type homogenizer, in three-fold amount of buffer solution A (1.5 mM EDTA, 2 mM dithiothreitol, 10 mM molybdate sodium, 10 % by volume of glycerol, 10 mM NaF, 25 mM phosphate sodium, pH 7.2). The obtained homogenate was filtrated through double gauze, and centrifuged at 105000×g for 60 minutes at 4° C., and the supernatant was obtained as cytoplasm fraction.
(2) Measurement of specific binding of ^3 H-mibolerone on prostate cytoplasm androgen receptor
To the cytoplasm fraction obtained in (1), ^3 H-mibolerone (87.0 Ci/mmol) was added, so that a final concentration is adjusted to 1 nM, and at the same time, in order to inhibit binding of ^3 H-mibolerone to progestin receptor, triamsinolone acetonide was added to a final concentration of 5 μM, and the final volume was adjusted to 0.4 ml with buffer solution A, and the reaction mixture was incubated for 20 hours at 0° C. After incubation, 0.5 ml of 60% hydroxylapatite slurry (washed and equilibrate with a buffer solution B: 10 mM NaH2 P04, 20 mM tris-hydrochloric acid, pH 7.2) was added, and incubated for 10 minutes at 0° C., the solution was transferred onto a glass fiber filter, and washed five times with 5 ml portions of buffer solution B containing 0.1% (weight/volume) of Triton X-100, to remove free ^3 H-mibolerone. This glass fiber was transferred into vial, and 10 ml of aquasol-2 was added, and the radioactivity was measured, and the total binding amount of ^3 H-mibolerone on prostate cytoplasm androgen receptor was determined.
The nonspecific binding amount was determined similarly by adding an unlabeled 5α-DHT in the reaction solution to a final concentration of 1 μM. The difference between the total binding amount and nonspecific binding amount was determined as the specific binding amount on the androgen receptor.
(3) Inhibitory activity of sample compounds on ^3 H-mibolerone specific binding
The compounds obtained in the experiments were added simultaneously with ^3 H-mibolerone at different concentrations to incubate same as in (2), and the specific binding amount of 3H-mibolerone on androgen receptor was determined. Comparing this value with the value obtained in (2), the IC50 value of inhibitory activity of the compounds on ^3 H-mibolerone specific binding was determined.

In the case of `N#Cc1ccc(NS(=O)(=O)c2ccc(-c3cnn4c(O)ncnc34)cc2)cc1` [Example 94, 8-[4-(4-cyanophenylaminosulfonyl)phenyl]-4-hydroxypyrazolo[1,5-a]-1,3,5-triazine], in assay [1], the concentration for half-maximal inhibition (IC50) – broadly, the concentration that inhibits the measured activity by half – came out at 6e-07 M.
On the same count and under the same terms, under `CCc1ccc(NS(=O)(=O)c2ccc(-c3cnn4c(O)ncnc34)cc2)cc1` [Example 89, 8-[4-(4-Ethylphenylaminosulfonyl)phenyl]-4-hydroxypyrazlo[1,5-a]-1,3,5-triazine] stands less than 5e-06 M.
As to `O=S(=O)(Nc1ccccc1)c1ccc(-c2cnn3c(O)ncnc23)cc1` [Example 87, 4-Hydroxy-8-(4-phenylaminosulfonylphenyl)pyrazolo[1,5-a]-1,3,5-triazine], the IC50 in assay [2] was found to be 4e-08 M; in assay [1], 1.3e-07 M.
Turning to `Cc1cc(-c2cnn3c(O)ncnc23)ccc1Sc1ccccc1` [Example 81, 4-Hydroxy-8-(3-methyl-4-phenylthiophenyl)pyrazolo[1,5-a]-1,3,5-triazine], the IC50 in assay [1] was 1.5e-07 M.
Consider `Cc1cc(-c2cnn3c(O)ncnc23)ccc1Sc1ccc(Br)cc1` [Example 100, 8-[4-(4-bromophenylthio)-3-methylphenyl]-4-hydroxypyrazolo[1,5-a]-1,3,5-triazine], for which, in assay [1], the half-maximal inhibitory concentration (IC50) turned out to be 4e-07 M.
For `CC(C)c1ccc(NS(=O)(=O)c2ccc(-c3cnn4c(O)ncnc34)cc2)cc1` [Example 92, 4-Hydroxy-8-[4-(4-isopropylphenylaminosulfonyl)phenyl]pyrazolo[1,5-a]-1,3,5-triazine], the concentration for half-maximal inhibition (IC50) in assay [1] is less than 5e-06 M.
Turning to `COc1cc(-c2cnn3c(O)ncnc23)ccc1Sc1ccccc1` [Example 101, 4-Hydroxy-8-(3-methoxy-4-phenylthiophenyl)pyrazolo [1,5-a]-1,3,5-triazine], the concentration for half-maximal inhibition (IC50) in assay [2] stood at 1.5e-07 M; in assay [1], 3e-07 M.
`CCc1ccccc1NS(=O)(=O)c1ccc(-c2cnn3c(O)ncnc23)cc1` [Example 91, 8-[4-(2-ethylphenylaminosulfonyl)phenyl]-4-hydroxypoyrazolo[1,5-a]-1,3,5-triazine]: the IC50 in assay [1] was less than 5e-06 M.
For the compound `CCc1cccc(NS(=O)(=O)c2ccc(-c3cnn4c(O)ncnc34)cc2)c1` [Example 90, 8-[4-(3-ethylphenylaminosulfonyl)phenyl]-4-hydroxypyrazolo[1,5-a]-1,3,5-triazine], in assay [1], the half-inhibitory concentration (IC50) is less than 5e-06 M.
With `Cc1cccc(Sc2ccc(-c3cnn4c(O)ncnc34)cc2C)c1` [Example 83, 4-Hydroxy-8-[3-methyl-4-(3-methylphenylthio)phenyl]pyrazolo[1,5-a]-1,3,5-triazine], in assay [1], the IC50 was determined as 1.3e-07 M.
As for `Cc1cc(-c2cnn3c(O)ncnc23)ccc1SCc1ccccc1` [Example 79, 8-(4-Benzylthio-3-methylphenyl)-4-hydroxypyrazolo[1,5-a]-1,3,5-triazine], the half-maximal inhibitory concentration (IC50) in assay [1] came out at 1.1e-07 M.
Regarding `COc1cccc(Sc2ccc(-c3cnn4c(O)ncnc34)cc2C)c1` [Example 85, 4-Hydroxy-8-[4-(3-methoxyphenylthio)-3-methyl]phenylpyrazolo[1,5-a]-1,3,5-triazine], the IC50 in assay [1] came to 1.6e-07 M.
Regarding `O=S(=O)(NC1CCCCC1)c1ccc(-c2cnn3c(O)ncnc23)cc1` [Example 98, 8-(4-cyclohexylaminosulfonylphenyl)-4-hydroxypyrazolo[1,5-a]-1,3,5-triazine], the IC50 in assay [1] was determined as 3.6e-07 M.
As to `COc1ccc(Sc2ccc(-c3cnn4c(O)ncnc34)cc2C)cc1` [Example 86, 4-Hydroxy-8-[4-(4-methoxyphenylthio)-3-methyl]phenylpyrazolo[1,5-a]-1,3,5-triazine], the IC50 in assay [1] amounted to 1.2e-07 M.
Still for that read-out and setting: under `Cc1ccc(Sc2ccc(-c3cnn4c(O)ncnc34)cc2C)cc1` [Example 84, 4-Hydroxy-8-[3-methyl-4-(4-methylphenylthio)phenyl]pyrazolo[1,5-a]-1,3,5-triazine] stands 1.5e-06 M.
With `Cc1cc(O)n2ncc(-c3ccc(Sc4ccccc4)cc3)c2n1` [Example 5, 7-Hydroxy-5,methyl-3-(4-phenylthiophenyl)pyrazolo[1,5-a]pyrimidine], the IC50 in assay [2] and in assay [1] was 5e-07 M each time.
As to `Cc1ccccc1Sc1ccc(-c2cnn3c(O)ncnc23)cc1C` [Example 82, 4-Hydroxy-8-[3-methyl-4-(2-methylphenylthio)phenyl]pyrazolo[1,5-a]-1,3,5-triazine], the half-maximal inhibitory concentration (IC50) in assay [1] came out at 1.1e-06 M.
As for `Oc1ccnc2c(-c3ccc(Sc4ccccc4)cc3)cnn12` [Example 3, 7-Hydroxy-3-(4-phenylthiophenyl)pyrazolo[1,5-a]pyrimidine], the half-maximal inhibitory concentration (IC50) in assay [2] was determined as 9e-08 M; in assay [1], 8.5e-07 M.
Consider `Cc1cc(-c2cnn3c(O)ncnc23)ccc1S(=O)(=O)Nc1ccccc1` [Example 103, 4-Hydroxy-8-(3-methyl-4-phenylaminosulfonylphenyl)pyrazolo[1,5-a]-1,3,5-triazine], for which, in assay [1], the half-inhibitory concentration (IC50) worked out at 2.5e-07 M.
As to `Cc1ccc(NS(=O)(=O)c2ccc(-c3cnn4c(O)ncnc34)cc2)cc1` [Example 88, 4-Hydroxy-8-[4-(4-methylphenylaminosulfonyl)phenyl]pyrazolo[1,5-a]-1,3,5-triazine], the IC50 in assay [1] is less than 5e-06 M.
With `O=S(=O)(Nc1ccc(Cl)cc1)c1ccc(-c2cnn3c(O)ncnc23)cc1` [Example 95, 8-[4-(4-chlorophenylaminosulfonyl)phenyl]-4-hydroxypyrazolo[1,5-a]-l,3,5-triazine], in assay [1], the half-maximal inhibitory concentration (IC50) stood at 1.2e-06 M.
With `O=S(=O)(Nc1cccnc1)c1ccc(-c2cnn3c(O)ncnc23)cc1` [Example 97, 4-Hydroxy-8-[4-(3-pyridylaminosulfonyl)phenyl]pyrazolo[1,5-a]-1,3,5-triazine], the half-maximal inhibitory concentration (IC50) in assay [1] was determined as 5e-06 M.
The same measure, in the same setting: under `Oc1ncnc2c(-c3ccc(Sc4ccccc4)c(Cl)c3)cnn12` [Example 102, 8-(3-chloro-4-phenylthiophenyl)-4-hydroxypyrazolo[1,5-a]-1,3,5-triazine] stands 2.2e-06 M.
Turning to `Oc1ncnc2c(-c3ccc(Sc4ccccc4)cc3)cnn12` [Example 77, 4-Hydroxy-8-(4-phenylthiophenyl)pyrazolo[1,5-a]-1,3,5-triazine], the IC50 in assay [2] worked out at 4.6e-07 M; in assay [1], 9.6e-07 M.
